In patent publication US11040962B2, “Pesticidally active pyrazole derivatives” (SYNGENTA PARTICIPATIONS AG, priority 2017, dated 2021):

What was measured:
Type in all cases: in vivo
Diabrotica balteata = Diabrotica balteata (corn root worm) maize sprout spray test; details: 96 h, application rate 200 ppm, L2 larvae, 4 days after infestation, vs untreated, read-out: effect in at least one of the two categories (mortality or growth inhibition)
Description: Diabrotica balteata, (Corn Root Worm)
Maize sprouts, placed on an agar layer in 24-well microtiter plates were treated with aqueous test solutions prepared from 10′000 ppm DMSO stock solutions by spraying. After drying, the plates were infested with L2 larvae (6 to 10 per well). The samples were assessed for mortality and growth inhibition in comparison to untreated samples 4 days after infestation. The following compounds gave an effect of at least 80% in at least one of the two categories (mortality or growth inhibition) at an application rate of 200 ppm: 1, 2, 3, 4, 7, 8, 9, 11, 12, 13, 14, 15, 16, 17, 18, 19, 20, 21, 27, 28 and 29.

Euschistus heros = Euschistus heros (neotropical brown stink bug) soybean leaf spray test; details: 120 h, application rate 200 ppm, N2 nymphs, 5 days after infestation, vs untreated, read-out: effect in at least one of the two categories (mortality or growth inhibition)
Description: Euschistus heros (Neotropical Brown Stink Bug)
Soybean leaves on agar in 24-well microtiter plates were sprayed with aqueous test solutions prepared from 10′000 ppm DMSO stock solutions. After drying the leaves were infested with N2 nymphs. The samples were assessed for mortality and growth inhibition in comparison to untreated samples 5 days after infestation. The following compounds gave an effect of at least 80% in at least one of the two categories (mortality or growth inhibition) at an application rate of 200 ppm: 1, 2, 3, 7, 8, 9, 12, 13, 14, 15, 17, 18, 21, 25, 26, 27, 28 and 29.

Plutella xylostella = Plutella xylostella (diamond back moth) artificial diet test; details: 120 h, application rate 200 ppm, L2 larvae, 5 days after infestation, vs untreated, read-out: effect in at least one of the two categories (mortality or growth inhibition)
Description: Plutella xylostella (Diamond Back Moth):
24-well microtiter plates with artificial diet were treated with aqueous test solutions prepared from 10′000 ppm DMSO stock solutions by pipetting. After drying, the plates were infested with L2 larvae (10 to 15 per well). The samples were assessed for mortality and growth inhibition in comparison to untreated samples 5 days after infestation. The following compounds gave an effect of at least 80% in at least one of the two categories (mortality or growth inhibition) at an application rate of 200 ppm: 1, 2, 3, 4, 7, 8, 9, 10, 11, 12, 13, 14, 15, 16, 17, 18, 19, 20, 21, 22, 23, 24, 26, 27, 28 and 29.

Spodoptera littoralis = Spodoptera littoralis (Egyptian cotton leaf worm) cotton leaf disc spray test; details: foliar, 72 h, application rate 200 ppm, L1 larvae, 3 days after infestation, vs untreated, read-out: control (at least one of mortality, anti-feedant effect, growth inhibition)
Description: Spodoptera littoralis (Egyptian Cotton Leaf Worm)
Cotton leaf discs were placed on agar in 24-well microtiter plates and sprayed with aqueous test solutions prepared from 10′000 ppm DMSO stock solutions. After drying the leaf discs were infested with five L1 larvae. The samples were assessed for mortality, anti-feedant effect, and growth inhibition in comparison to untreated samples 3 days after infestation. Control of Spodoptera littoralis by a test sample is when at least one of mortality, anti-feedant effect, and growth inhibition is higher than the untreated sample.

Thrips tabaci = Thrips tabaci (onion thrips) sunflower leaf disc spray test; details: foliar, 144 h, application rate 200 ppm, population of mixed ages, 6 days after infestation
Description: Thrips tabaci (Onion Thrips):
Sunflower leaf discs were placed on agar in 24-well microtiter plates and sprayed with aqueous test solutions prepared from 10′000 ppm DMSO stock solutions. After drying the leaf discs were infested with a Thrips population of mixed ages. The samples were assessed for mortality 6 days after infestation.

Tetranychus urticae = Tetranychus urticae (two-spotted spider mite) bean leaf disc spray test; details: foliar, 192 h, application rate 200 ppm, 8 days after infestation, read-out: mortality on mixed population (mobile stages)
Description: Tetranychus urticae (Two-Spotted Spider Mite):
Bean leaf discs on agar in 24-well microtiter plates were sprayed with aqueous test solutions prepared from 10′000 ppm DMSO stock solutions. After drying the leaf discs were infested with a mite population of mixed ages. The samples were assessed for mortality on mixed population (mobile stages) 8 days after infestation.

CCN(C(=O)c1cc(-c2cc(-c3c(C(F)(F)F)c(C(F)(F)C(F)(F)F)nn3C)no2)sc1Cl)C1CC1 [Compound 21, 2-chloro-N-cyclopropyl-N-ethyl-5-[3-[2-methyl-5-(1,1,2,2,2-pentafluoroethyl)-4-(trifluoromethyl)pyrazol-3-yl]isoxazol-5-yl]thiophene-3-carboxamide]
≥ 80%: percent effect (mortality or growth inhibition) at 200 ppm (Diabrotica balteata) | percent effect (mortality or growth inhibition) at 200 ppm (Euschistus heros) | percent effect (mortality or growth inhibition) at 200 ppm (Plutella xylostella) | percent control (mortality, anti-feedant effect or growth inhibition) at 200 ppm (Spodoptera littoralis)

CN(C(=O)c1cc(-c2cc(-c3c(C(F)(F)F)c(C(F)(F)C(F)(F)F)nn3C)no2)sc1Cl)C1(C#N)CC1 [Compound 23, 2-chloro-N-(1-cyanocyclopropyl)-N-methyl-5-[3-[2-methyl-5-(1,1,2,2,2-pentafluoroethyl)-4-(trifluoromethyl)pyrazol-3-yl]isoxazol-5-yl]thiophene-3-carboxamide]
≥ 80%: mortality at 200 ppm (Thrips tabaci) | percent effect (mortality or growth inhibition) at 200 ppm (Plutella xylostella) | percent control (mortality, anti-feedant effect or growth inhibition) at 200 ppm (Spodoptera littoralis)

Cn1nc(C(F)(F)C(F)(F)F)c(C(F)(F)F)c1-n1cc(-c2cc(C(=O)NC3(C#N)CC3)c(C#N)s2)nn1 [Compound 4, 2-cyano-N-(1-cyanocyclopropyl)-5-[1-[2-methyl-5-(1,1,2,2,2-pentafluoroethyl)-4-(trifluoromethyl)pyrazol-3-yl]triazol-4-yl]thiophene-3-carboxamide]
≥ 80%: percent effect (mortality or growth inhibition) at 200 ppm (Diabrotica balteata) | mortality at 200 ppm (Thrips tabaci) | mortality at 200 ppm (Tetranychus urticae) | percent effect (mortality or growth inhibition) at 200 ppm (Plutella xylostella) | percent control (mortality, anti-feedant effect or growth inhibition) at 200 ppm (Spodoptera littoralis)

Cn1nc(C(F)(F)C(F)(F)F)c(C(F)(F)F)c1-c1cc(-c2cc(C(=O)NC3(C#N)CC3)c(Cl)s2)on1 [Compound 22, 2-chloro-N-(1-cyanocyclopropyl)-5-[3-[2-methyl-5-(1,1,2,2,2-pentafluoroethyl)-4-(trifluoromethyl)pyrazol-3-yl]isoxazol-5-yl]thiophene-3-carboxamide]
≥ 80%: percent effect (mortality or growth inhibition) at 200 ppm (Plutella xylostella)

Cn1nc(C(F)(F)C(F)(F)F)c(C(F)(F)F)c1-n1cc(-c2cc(C(=O)NC3(C#N)CC3)c(Cl)s2)nn1 [Compound 10, 2-chloro-N-(1-cyanocyclopropyl)-5-[1-[2-methyl-5-(1,1,2,2,2-pentafluoroethyl)-4-(trifluoromethyl)pyrazol-3-yl]triazol-4-yl]thiophene-3-carboxamide]
≥ 80%: mortality at 200 ppm (Thrips tabaci) | percent effect (mortality or growth inhibition) at 200 ppm (Plutella xylostella) | percent control (mortality, anti-feedant effect or growth inhibition) at 200 ppm (Spodoptera littoralis)

Cn1nc(C(F)(F)C(F)(F)F)c(C(F)(F)F)c1-c1cc(-c2cc(C(=O)NC3CC3)c(Cl)s2)on1 [Compound 19, 2-chloro-N-cyclopropyl-5-[3-[2-methyl-5-(1,1,2,2,2-pentafluoroethyl)-4-(trifluoromethyl)pyrazol-3-yl]isoxazol-5-yl]thiophene-3-carboxamide]
≥ 80%: percent effect (mortality or growth inhibition) at 200 ppm (Diabrotica balteata) | percent effect (mortality or growth inhibition) at 200 ppm (Plutella xylostella) | percent control (mortality, anti-feedant effect or growth inhibition) at 200 ppm (Spodoptera littoralis)

CN(C(=O)c1cc(-c2cc(-c3c(C(F)(F)F)c(C(F)(F)C(F)(F)F)nn3C)no2)sc1Cl)C1CC1 [Compound 20, 2-chloro-N-cyclopropyl-N-methyl-5-[3-[2-methyl-5-(1,1,2,2,2-pentafluoroethyl)-4-(trifluoromethyl)pyrazol-3-yl]isoxazol-5-yl]thiophene-3-carboxamide]
≥ 80%: percent effect (mortality or growth inhibition) at 200 ppm (Diabrotica balteata) | mortality at 200 ppm (Thrips tabaci) | percent effect (mortality or growth inhibition) at 200 ppm (Plutella xylostella) | percent control (mortality, anti-feedant effect or growth inhibition) at 200 ppm (Spodoptera littoralis)

CCN(C(=O)c1cc(-c2cc(-c3c(C(F)(F)F)c(C(F)(F)C(F)(F)F)nn3C)no2)sc1Cl)C1(C#N)CC1 [Compound 24]
≥ 80%: mortality at 200 ppm (Thrips tabaci) | percent effect (mortality or growth inhibition) at 200 ppm (Plutella xylostella) | percent control (mortality, anti-feedant effect or growth inhibition) at 200 ppm (Spodoptera littoralis)

CCN(C(=O)c1cc(-c2cn(-c3c(C(F)(F)F)c(C(F)(F)C(F)(F)F)nn3C)nn2)sc1Cl)C1(C#N)CC1 [Compound 12, 2-chloro-N-(1-cyanocyclopropyl)-N-ethyl-5-[1-[2-methyl-5-(1,1,2,2,2-pentafluoroethyl)-4-(trifluoromethyl)pyrazol-3-yl]triazol-4-yl]thiophene-3-carboxamide]
≥ 80%: percent effect (mortality or growth inhibition) at 200 ppm (Diabrotica balteata) | percent effect (mortality or growth inhibition) at 200 ppm (Euschistus heros) | mortality at 200 ppm (Thrips tabaci) | percent effect (mortality or growth inhibition) at 200 ppm (Plutella xylostella) | percent control (mortality, anti-feedant effect or growth inhibition) at 200 ppm (Spodoptera littoralis)

Cn1nc(C(F)(F)C(F)(F)F)c(C(F)(F)F)c1-c1cc(-c2cc(C(=O)NC3CC3)c(C#N)s2)cs1 [Compound 25, 2-cyano-N-cyclopropyl-5-[5-[2-methyl-5-(1,1,2,2,2-pentafluoroethyl)-4-(trifluoromethyl)pyrazol-3-yl]-3-thienyl]thiophene-3-carboxamide]
≥ 80%: percent effect (mortality or growth inhibition) at 200 ppm (Euschistus heros) | mortality at 200 ppm (Tetranychus urticae)

Cn1nc(C(F)(F)C(F)(F)F)c(C(F)(F)F)c1-c1cc(-c2cc(C(=O)NC3(C#N)CC3)c(C#N)s2)on1 [Compound 16, 2-cyano-N-(1-cyanocyclopropyl)-5-[3-[2-methyl-5-(1,1,2,2,2-pentafluoroethyl)-4-(trifluoromethyl)pyrazol-3-yl]isoxazol-5-yl]thiophene-3-carboxamide]
≥ 80%: percent effect (mortality or growth inhibition) at 200 ppm (Diabrotica balteata) | mortality at 200 ppm (Thrips tabaci) | mortality at 200 ppm (Tetranychus urticae) | percent effect (mortality or growth inhibition) at 200 ppm (Plutella xylostella) | percent control (mortality, anti-feedant effect or growth inhibition) at 200 ppm (Spodoptera littoralis)

CN(C(=O)c1cc(-c2cn(-c3c(C(F)(F)F)c(C(F)(F)C(F)(F)F)nn3C)nn2)sc1Cl)C1(C#N)CC1 [Compound 11, 2-chloro-N-(1-cyanocyclopropyl)-N-methyl-5-[1-[2-methyl-5-(1,1,2,2,2-pentafluoroethyl)-4-(trifluoromethyl)pyrazol-3-yl]triazol-4-yl]thiophene-3-carboxamide]
≥ 80%: percent effect (mortality or growth inhibition) at 200 ppm (Diabrotica balteata) | mortality at 200 ppm (Thrips tabaci) | percent effect (mortality or growth inhibition) at 200 ppm (Plutella xylostella) | percent control (mortality, anti-feedant effect or growth inhibition) at 200 ppm (Spodoptera littoralis)

CCN(C(=O)c1cc(-c2cc(-c3c(C(F)(F)F)c(C(F)(F)C(F)(F)F)nn3C)no2)sc1C#N)C1(C#N)CC1 [Compound 18, 2-cyano-N-(1-cyanocyclopropyl)-N-ethyl-5-[3-[2-methyl-5-(1,1,2,2,2-pentafluoroethyl)-4-(trifluoromethyl)pyrazol-3-yl]isoxazol-5-yl]thiophene-3-carboxamide]
≥ 80%: percent effect (mortality or growth inhibition) at 200 ppm (Diabrotica balteata) | percent effect (mortality or growth inhibition) at 200 ppm (Euschistus heros) | mortality at 200 ppm (Thrips tabaci) | percent effect (mortality or growth inhibition) at 200 ppm (Plutella xylostella) | percent control (mortality, anti-feedant effect or growth inhibition) at 200 ppm (Spodoptera littoralis)
